Test results reported in US11503828B2, “Antibacterial hydrophilic compound and use thereof” (SHENZHEN UNIVERSITY, priority 2017, dated 2022).

Tests used:
[1] = Hydrophilicity (core height) of modified PET cloth, FIG. 5; type: physicochemical; settings: modified PET cloth (B) vs unmodified PET (A)
From the text: FIG. 5 is a diagram illustrating hydrophilicity of PET cloth treated with an antibacterial hydrophilic compound according to Example 1 of the present disclosure.

[2] = Hydrophilicity (water contact angle) of modified PET cloth; type: physicochemical; settings: for Contact angel: water contact angle of PET cloth modified with finishing liquid, UV 254 nm 1 minute, untreated PET 92 degrees
Method: (§1) The antibacterial hydrophilic compounds obtained in Examples 1-29 may be formulated into a finishing liquid having a mass concentration of 0.1-10% using water as a solvent, and the PET cloth may be impregnated and modified by the finishing liquid. After irradiation for 1 minute at ultraviolet light (wavelength: 254 nm), the antibacterial activity against Escherichia coli and Staphylococcus aureus may be tested by plate counting method, and their hydrophilicity (water contact angle of untreated PET may be 92 degrees) may be tested.
FIG. 3 illustrates a change in a contact angle of PET cloth treated or untreated by an antibacterial hydrophilic compound according to Example 13 of the present disclosure, where section (A) is a photograph of untreated PET cloth, and section (B) is a photograph of treated PET clot.

Escherichia coli = assay: Antibacterial activity of modified PET cloth by plate counting method; type: cell-based; parameters: Antibacterial activity, Washing one time: concentration or dose not given beside the values; settings: E. coli
Method: as §1

Staphylococcus aureus = assay: as above; type: cell-based; parameters: Antibacterial activity, Washing one time: concentration or dose not given beside the values; settings: S. aureas
Method: as §1

Row | Compound | core height vs unmodified PET [1] | Contact angel [2] | Antibacterial activity, Washing 50 times (Escherichia coli) | Antibacterial activity, Washing one time (Escherichia coli) | Antibacterial activity, Washing 50 times (Staphylococcus aureus) | Antibacterial activity, Washing one time (Staphylococcus aureus) | water contact angle of the treated PET cloth ([2]; FIG. 3, untreated PET cloth 92 degrees)
1 | C[N+](C)(CCCS(=O)(=O)[O-])c1ccc(C(=O)c2ccc([N+](C)(C)CCCS(=O)(=O)[O-])cc2)cc1 [Example 1] | significantly greater | 0 degrees | 88.5% | 99.99% | 92.9% | 99.99% | –
2 | C[N+](C)(CCCCS(=O)(=O)[O-])CCOc1ccc(C(=O)c2ccccc2)cc1 [Example 2] | – | 0 degrees | 86.2% | 99.99% | 89.9% | – | –
3 | CCOP(=O)([O-])OCC[N+](C)(C)Cc1ccc(C(=O)c2ccccc2)cc1 [Example 3] | – | 0 degrees | 87.8% | 99.99% | 90.2% | 99.99% | –
4 | C[N+](C)(CCC(=O)[O-])c1ccc(C(=O)Oc2ccc(C(=O)c3ccccc3)cc2)cc1 [Example 4] | – | 0 degrees | 86.9% | 99.99% | 80.9% | 99.99% | –
5 | C[N+](C)(CCS(=O)(=O)[O-])Cc1ccc(C(=O)c2ccccc2)cc1 [Example 6] | – | 0 degrees | 86.6% | 99.99% | 89.7% | – | –
6 | CCCCCCCC[N+](C)(C)CCOC(=O)Nc1ccc(C(=O)c2ccccc2)cc1.[Br-] [Example 11] | – | 0 degrees | 92.8% | 99.99% | 99.9% | 99.99% | –
7 | CCCCCCCCCCCC[N+](C)(C)c1ccc(C(=O)Oc2ccc(C(=O)c3ccccc3)cc2)cc1 [Example 13] | – | 0 degrees | 91.7% | 99.99% | 96.9% | 99.99% | 0 °
8 | CCCCCCCCCCCC[N+](C)(C)Cc1ccc(C(=O)c2ccccc2)cc1 [Example 14] | – | 0 degrees | 91.7% | 99.99% | 96.9% | 99.99% | –
9 | CCCCCCCCCC[N+](C)(C)Cc1ccc(C(=O)c2ccc(C[N+](C)(C)CCCCCCCCCC)cc2)cc1 [Example 15] | – | 0 degrees | 96.8% | 99.99% | 99.9% | – | –
10 | CCCCCCCCCC[N+](C)(C)Cc1ccc2c(c1)C(=O)c1ccccc1C2=O [Example 16] | – | 0 degrees | 91.7% | 99.99% | 98.5% | – | –
11 | CCCCCCCCCCCC[N+](C)(C)CCOC(=O)Nc1ccc(C)c(NC(=O)Nc2ccccc2C(=O)c2ccc(Cl)cc2)c1 [Example 18] | – | 0 degrees | 95.8% | 99.99% | 99.9% | 99.99% | –
12 | CCCCCCCC[N+](C)(C)Cc1cn(Cc2ccc(C(=O)c3ccccc3)cc2)nn1 [Example 19] | – | 0 degrees | 92.8% | 99.99% | 99.6% | 99.99% | –
13 | CC1(C)C(=O)N(COC(=O)Nc2ccc(C(=O)c3ccccc3)cc2)C(C)(C)N1Cl [Example 26] | – | 45 degrees | 97.9% | 99.99% | 99.9% | – | –
14 | CC1(C)C(=O)N(Cc2ccc(C(=O)c3ccccc3)cc2)C(=O)N1Cl [Example 27] | – | 50 degrees | 94.9% | 99.99% | 99.8% | – | –
15 | CC1(C)C(=O)N(CC(O)CNCc2ccc(C(=O)c3ccccc3)cc2)C(=O)N1Cl (centres unmarked) [Example 28] | – | 40 degrees | 95.1% | 99.99% | 99.9% | 99.99% | –
